From US20240131028A1, “CHEMOVACCINATION AGAINST PLASMODIUM INFECTION WITH SELECTIVE PLASMEPSIN X INHIBITORS” (Merck Sharp & Dohme LLC, priority 2021, published 2024)

Tested on: ring stage parasites (Pf)
Assay: Parasite lactate dehydrogenase (LDH) growth assay (Parasite Assay, PfLDH Assay)
Type: cell-based, P. falciparum
Settings: Table 3; 72 hours growth, LDH readout; read-out: EC50
Description: The parasite stock was maintained at 4% haematocrit in RPMI-Hepes media buffered with sodium bicarbonate and supplemented with 5% heat inactivated human serum and 0.5% albumax. […] On the day of assay set up, a blood smear of the parasite culture was Giemsa stained and counted. The parasitemia was adjusted to 0.7% rings and the haematocrit was diluted to 2% in RPMI-Hepes media buffered with sodium bicarbonate and supplemented with 5% heat inactivated human serum and 0.5% albumax. 30 μl of diluted parasites are then added into 10 μl of media+compound in pre-prepared Greiner TC assay plates. Parasite assay plates were placed in gassed humidified boxes in single layer and allowed to incubate at 37° C. for 72 hours. After 72 hours growth, assay plates were sealed with parafilm and frozen flat, in single file at −80° C. overnight. On the following day, assay plates were allowed to thaw at room temperature for 4 hours to which an LDH assay was performed to measure parasite growth.

| Compound | EC50 [nM] |
| --- | --- |
| CCC1(CC)CC(=O)N(CC2C(C(=O)N[C@H]3C[C@@H](C(F)(F)F)Oc4ccccc43)C2(F)F)C(=N)N1 (single isomer, unassigned) [Example 17A] | 47 |
| CCC1(CC)CC(=O)N(CC2C(C(=O)N[C@H]3C[C@@H](C(F)(F)F)Oc4ccccc43)C2(F)F)C(=N)N1 (single isomer, unassigned) [Example 17B] | 20 |
| CCC1(CC)CC(=O)N(C[C@H]2C(C)[C@@H]2C(=O)N[C@H]2CC(C)(C)Oc3ccccc32)C(=N)N1 (single isomer, unassigned) [Example 25A] | 84 |
| CCC1(CC)CC(=O)N(C[C@H]2C(C)[C@@H]2C(=O)N[C@H]2CC(C)(C)Oc3ccccc32)C(=N)N1 (single isomer, unassigned) [Example 25B] | 25 |
| CCC1(CC)CC(=O)N(C[C@H]2C(C)[C@@H]2C(=O)N[C@H]2c3ccccc3CC2(C)O)C(=N)N1 (single isomer, unassigned) [Example 29A] | 203 |
| CCC1(CC)CC(=O)N(C[C@H]2C(C)[C@@H]2C(=O)N[C@H]2c3ccccc3CC2(C)O)C(=N)N1 (single isomer, unassigned) [Example 29B] | 351 |
| CCC1(CC)CC(=O)N(C[C@H]2C(C)[C@@H]2C(=O)N[C@H]2c3ccccc3CC2(C)O)C(=N)N1 (single isomer, unassigned) [Example 29C] | 113 |
| CCC1(CC)CC(=O)N(C[C@H]2C(C)[C@@H]2C(=O)N[C@@H]2c3ccccc3OC(C)(C)[C@H]2O)C(=N)N1 (single isomer, unassigned) [Example 30A] | 45 |
| CCC1(CC)CC(=O)N(C[C@H]2C(C)[C@@H]2C(=O)N[C@@H]2c3ccccc3OC(C)(C)[C@H]2O)C(=N)N1 (single isomer, unassigned) [Example 30B] | 7.7 |
| CCC1(CC)CC(=O)N(C[C@H]2C(C)[C@@H]2C(=O)N[C@@H]2c3ccccc3OCC2(C)O)C(=N)N1 (single isomer, unassigned) [Example 35A] | 85 |
| CCC1(CC)CC(=O)N(C[C@H]2C(C)[C@@H]2C(=O)N[C@@H]2c3ccccc3OCC2(C)O)C(=N)N1 (single isomer, unassigned) [Example 35B] | 220 |
| CC1[C@H](C(c2cccnc2)N2C(=N)NC(C)(C)CC2=O)[C@H]1C(=O)N[C@H]1C[C@H](C(F)(F)F)Oc2ccccc21 (single isomer, unassigned) [Example 54A] | 1 |
| CC1[C@H](C(c2cccnc2)N2C(=N)NC(C)(C)CC2=O)[C@H]1C(=O)N[C@H]1C[C@H](C(F)(F)F)Oc2ccccc21 (single isomer, unassigned) [Example 54B] | 130 |
| CCC1(CC)CC(=O)N(C(c2cccnc2)[C@H]2C(C)[C@@H]2C(=O)N[C@H]2C[C@H](C(F)(F)F)Oc3ccccc32)C(=N)N1 (single isomer, unassigned) [Example 55A] | 0.8 |
| CCC1(CC)CC(=O)N(C(c2cccnc2)[C@H]2C(C)[C@@H]2C(=O)N[C@H]2C[C@H](C(F)(F)F)Oc3ccccc32)C(=N)N1 (single isomer, unassigned) [Example 55B] | 180 |
| CCC1(C)CC(NC(=O)[C@H]2C[C@@H]2[C@@H](CCOC)N2C(=N)NC(C)(C)CC2=O)c2ccccc2O1 (single isomer, unassigned) [Example 75B] | 7.5 |
| CCC1(C)CC(NC(=O)[C@H]2C[C@@H]2[C@@H](CCOC)N2C(=N)NC(C)(C)CC2=O)c2ccccc2O1 (single isomer, unassigned) [Example 75C] | 7 |
| CCC1(C)CC(NC(=O)[C@H]2C[C@@H]2[C@@H](CCOC)N2C(=N)NC(C)(C)CC2=O)c2ccccc2O1 (single isomer, unassigned) [Example 75D] | 7 |

| Compound | EC50 [nM] |
| --- | --- |
| CC(C)C1(C)CC(NC(=O)[C@H]2C[C@@H]2CN2C(=N)NC(C)(C)CC2=O)c2ccccc2O1 (single isomer, unassigned) [Example 79B] | 275 |
| CC(C)C1(C)CC(NC(=O)[C@H]2C[C@@H]2CN2C(=N)NC(C)(C)CC2=O)c2ccccc2O1 (single isomer, unassigned) [Example 79C] | 289 |
| COCC[C@H]([C@H]1C[C@@H]1C(=O)NC1CC(C)(C(C)C)Oc2ccccc21)N1C(=N)NC(C)(C)CC1=O (single isomer, unassigned) [Example 80A] | 9.4 |
| COCC[C@H]([C@H]1C[C@@H]1C(=O)NC1CC(C)(C(C)C)Oc2ccccc21)N1C(=N)NC(C)(C)CC1=O (single isomer, unassigned) [Example 80B] | 6.6 |
| COCC[C@H]([C@H]1C[C@@H]1C(=O)NC1CC(C)(C(C)C)Oc2ccccc21)N1C(=N)NC(C)(C)CC1=O (single isomer, unassigned) [Example 80C] | 14 |
| COCC[C@H]([C@H]1C[C@@H]1C(=O)NC1CC(C)(C(C)C)Oc2ccccc21)N1C(=N)NC(C)(C)CC1=O (single isomer, unassigned) [Example 80D] | 21 |
| CC(C)C1(C)CC(NC(=O)[C@H]2C[C@@H]2[C@@H](c2cccnc2)N2C(=N)NC(C)(C)CC2=O)c2ccccc2O1 (single isomer, unassigned) [Example 81A] | 2.7 |
| CC(C)C1(C)CC(NC(=O)[C@H]2C[C@@H]2[C@@H](c2cccnc2)N2C(=N)NC(C)(C)CC2=O)c2ccccc2O1 (single isomer, unassigned) [Example 81B] | 1 |
| CC(C)C1(C)CC(NC(=O)[C@H]2C[C@@H]2[C@@H](c2cccnc2)N2C(=N)NC(C)(C)CC2=O)c2ccccc2O1 (single isomer, unassigned) [Example 81C] | 0.9 |
| CC(C)C1(C)CC(NC(=O)[C@H]2C[C@@H]2[C@@H](c2cccnc2)N2C(=N)NC(C)(C)CC2=O)c2ccccc2O1 (single isomer, unassigned) [Example 81D] | 1.3 |
| COCC[C@H]([C@H]1C[C@@H]1C(=O)NC1CC(C)(COC)Oc2ccccc21)N1C(=N)NC(C)(C)CC1=O (single isomer, unassigned) [Example 82A] | 24.4 |
| COCC[C@H]([C@H]1C[C@@H]1C(=O)NC1CC(C)(COC)Oc2ccccc21)N1C(=N)NC(C)(C)CC1=O (single isomer, unassigned) [Example 82B] | 57 |
| COCC[C@H]([C@H]1C[C@@H]1C(=O)NC1CC(C)(COC)Oc2ccccc21)N1C(=N)NC(C)(C)CC1=O (single isomer, unassigned) [Example 82C] | 53 |
| COCC[C@H]([C@H]1C[C@@H]1C(=O)NC1CC(C)(COC)Oc2ccccc21)N1C(=N)NC(C)(C)CC1=O (single isomer, unassigned) [Example 82D] | 27 |
| CC1(C)CC(=O)N([C@H](c2cccnc2)[C@H]2C[C@@H]2C(=O)NC2CC(C)(C)Oc3ccc(F)cc32)C(=N)N1 (single isomer, unassigned) [Example 98A] | 0.9 |
| CC1(C)CC(=O)N([C@H](c2cccnc2)[C@H]2C[C@@H]2C(=O)NC2CC(C)(C)Oc3ccc(F)cc32)C(=N)N1 (single isomer, unassigned) [Example 98B] | 2.2 |
| CC[C@]1(C)CC(=O)N(C(c2cncc(F)c2)[C@H]2C[C@@H]2C(=O)N[C@@H]2c3ccccc3OC(C)(C)C2(C)O)C(=N)N1 (single isomer, unassigned) [Example 103A] | 29 |
